# Measurements as given in BindingDB's records for doi:10.7270/Q2TB15DB (Burnham Center For Chemical Genomics, 2011).
# Target: T1, Endoribonuclease toxin MazF (Escherichia coli (strain K12), UniProt P0AE70)
# T1 sequence (P0AE70 whole entry): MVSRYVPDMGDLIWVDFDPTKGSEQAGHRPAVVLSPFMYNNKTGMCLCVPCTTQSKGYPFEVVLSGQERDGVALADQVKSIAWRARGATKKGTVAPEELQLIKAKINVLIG
# Assay: fluorescent RNA oligo signal without MazF, dose response, counter-screen for MazEF activator project, biochemical, fluorescence, single-stranded RNase substrate (AID 588502)
row,SMILES,EC50 [µM]
1,CCOc1ccc(N=CCC(=O)c2ccc(OC)cc2)c([N+](=O)[O-])c1,6.29
2,O=C1N=c2ccccc2=C1NNc1ccc(F)cc1,> 99
3,Cc1ccc(Cl)c2c1=NC(=O)C=2NNc1ccccc1,8.15
4,N#CC(C(=O)c1ccc([N+](=O)[O-])o1)c1nc2ccccc2[nH]1 (stereo not drawn),5.53
5,Cc1oc(C)c2c(=O)ccc3c(c12)OC(=N)C(C#N)C3c1ccccc1 (stereo not drawn),> 99
6,CC1CC(=O)C2=C(C1)OC(=N)C(C#N)C2c1coc2ccccc2c1=O (stereo not drawn),> 99
7,O=C1N=c2ccccc2=C1NNc1ccccc1F,31.7
8,O=C1Nc2ccc([N+](=O)[O-])cc2C1=NNc1ccc(F)cc1,20.3
9,Cc1ccc2nc(N3C(=O)C(=O)C(C(=O)c4ccco4)C3c3cccs3)sc2c1 (stereo not drawn),> 99
10,"Cc1cc(O)n(-c2ccc(NCc3ccc(Cl)cc3)c([N+](=O)[O-])c2)c1O [1-{4-[(4-chlorobenzyl)amino]-3-nitrophenyl}-3-methylpyrrolidine-2,5-dione]",> 99
11,"COc1ccc(Nc2oc3cc(=O)ccc-3cc2C(=O)NCC2CCCO2)c(OC)c1 (stereo not drawn) [2-(2,4-dimethoxyanilino)-7-oxo-N-(2-oxolanylmethyl)-1-benzopyran-3-carboxamide]",> 99
12,"CCCCOc1cccc(C2C(C(=O)c3ccc(C)o3)C(=O)C(=O)N2c2nnc(C)s2)c1 (stereo not drawn) [2-(3-butoxyphenyl)-3-(5-methylfuran-2-yl)carbonyl-1-(5-methyl-1,3,4-thiadiazol-2-yl)-4-oxidanyl-2H-pyrrol-5-one]",20.4
13,"CCOc1cccc(C2C(C(=O)c3ccc(C)o3)C(=O)C(=O)N2c2nccs2)c1 (stereo not drawn) [2-(3-ethoxyphenyl)-3-(5-methylfuran-2-yl)carbonyl-4-oxidanyl-1-(1,3-thiazol-2-yl)-2H-pyrrol-5-one]",> 99
14,"Cc1[nH]c2ccccc2c1/C=C1\N=C(c2ccc(F)cc2)OC1=O [2-(4-fluorophenyl)-4-[(2-methyl-1H-indol-3-yl)methylene]-1,3-oxazol-5(4H)-one]",55.9
15,"Cc1nnc(N2C(=O)C(=O)C(C(=O)c3ccco3)C2c2ccc(C(C)(C)C)cc2)s1 (stereo not drawn) [2-(4-tert-butylphenyl)-3-(furan-2-carbonyl)-4-hydroxy-1-(5-methyl-1,3,4-thiadiazol-2-yl)-2H-pyrrol-5-one]",19.7
16,O=[N+]([O-])c1ccc(N=NCc2ccccc2)c(F)c1 [2-fluoranyl-4-nitro-N-[(phenylmethylidene)amino]aniline],27.2
17,"O=C1C(=O)N(c2nccs2)C(c2ccccc2)C1C(=O)c1cc2ccccc2o1 (stereo not drawn) [3-(1-benzofuran-2-carbonyl)-4-hydroxy-2-phenyl-1-(1,3-thiazol-2-yl)-2H-pyrrol-5-one]",> 99
18,"C=CCOc1cccc(C2C(C(=O)c3ccc(C)o3)C(=O)C(=O)N2c2nccs2)c1 (stereo not drawn) [3-(5-methylfuran-2-yl)carbonyl-4-oxidanyl-2-(3-prop-2-enoxyphenyl)-1-(1,3-thiazol-2-yl)-2H-pyrrol-5-one]",> 99
19,"CSc1ccc(C2C(C(=O)c3ccco3)C(=O)C(=O)N2c2nnc(SC)s2)cc1 (stereo not drawn) [3-(furan-2-carbonyl)-4-hydroxy-2-(4-methylsulfanylphenyl)-1-(5-methylsulfanyl-1,3,4-thiadiazol-2-yl)-2H-pyrrol-5-one]",> 99
20,O=C1Nc2ccccc2C1=NNc1ccccc1 [3-(phenylhydrazo)-2-indolone],54.6

row,SMILES,EC50 [µM]
1,"COc1cccc(C2=Nc3nnnn3C(c3ccc(N(C)C)cc3)C2)c1 (stereo not drawn) [4-[5-(3-methoxyphenyl)-1,7-dihydro-[1,2,3,4]tetrazolo[1,5-a]pyrimidin-7-yl]-N,N-dimethyl-aniline]",> 99
2,"N#Cc1ccc(-n2c(O)c3[nH][nH]c(C(=O)c4ccc5ccccc5n4)c-3c2=O)cc1 [4-[(3aS,6aS)-4,6-dioxo-3-[oxo(2-quinolinyl)methyl]-3a,6a-dihydro-1H-pyrrolo[3,4-c]pyrazol-5-yl]benzonitrile]",0.271
3,Cc1ccc(N/N=C2/C(=O)Nc3ccc(F)cc32)cc1 [5-fluoro-3-[2-(4-methylphenyl)hydrazono]indolin-2-one],29.9
4,"O=c1cc2oc(O)c3cc(O)c(O)c(O)c3c-2oc1=O [6,8,9,10-tetrahydroxypyran[3,2-c]isochromene-2,3-quinone]",> 99
5,"COCc1n[nH]c2c1C(c1cc(OC)c(O)c(OC)c1)C(C#N)C(=N)O2 (stereo not drawn) [6-azanyl-4-(3,5-dimethoxy-4-oxidanyl-phenyl)-3-(methoxymethyl)-2,4-dihydropyrano[2,3-c]pyrazole-5-carbonitrile]",> 99
6,Cn1c(C(C#N)C(=O)COc2ccc3ccccc3c2)nc2ccccc21 (stereo not drawn) [(2E)-2-(3-methyl-1H-benzimidazol-2-ylidene)-4-(2-naphthalenyloxy)-3-oxobutanenitrile],> 99
7,"COc1cc2c(cc1OC)C(CC(=O)c1ccc([N+](=O)[O-])c(C)c1)=NCC2 [(2Z)-2-(6,7-dimethoxy-3,4-dihydro-2H-isoquinolin-1-ylidene)-1-(3-methyl-4-nitrophenyl)ethanone]",43.8
8,"O=C1N=c2ccccc2=C1NNc1cccc(Cl)c1 [(3E)-1H-indole-2,3-dione 3-[(3-chlorophenyl)hydrazone]]",> 99
9,CCCCN1C(=O)C(=NNc2ccccc2O)c2ccccc21 [(3Z)-1-butyl-3-[(2-hydroxyphenyl)hydrazinylidene]indol-2-one],69.5
10,CCCN1C(=O)C(=NNc2ccc3ccccc3n2)c2ccccc21 [(3Z)-1-propyl-3-(2-quinolinylhydrazinylidene)-2-indolone],> 99
11,Cc1ccc(NN=C2C(=O)N(CN3CCOCC3)c3ccccc32)cc1 [(3Z)-3-[(4-methylphenyl)hydrazinylidene]-1-(4-morpholinylmethyl)-2-indolone],50.5
12,"O=C(c1ccc2ccccc2n1)c1[nH][nH]c2c(O)n(-c3cccc(F)c3)c(=O)c1-2 [(3aS,6aS)-5-(3-fluorophenyl)-3-[oxo(2-quinolinyl)methyl]-3a,6a-dihydro-1H-pyrrolo[3,4-c]pyrazole-4,6-dione]",> 99
13,"N=C(N)C1=CC(=O)/C(=C/C=c2ccc(=C(N)N)cc2)C=C1 [(4E)-4-[2-[4-[bis(azanyl)methylidene]cyclohexa-2,5-dien-1-ylidene]ethylidene]-3-oxidanylidene-cyclohexa-1,5-diene-1-carboximidamide;2-oxidanylethanesulfonic acid]",> 99
14,"O=C1NC(=O)N(C2CCCCC2)C(=O)C1=CCC=Nc1ccccc1 [(5Z)-5-[(E)-3-anilinoprop-2-enylidene]-1-cyclohexyl-1,3-diazinane-2,4,6-trione]",9.49
15,Clc1cccc(C(Cc2nc3ccccc3[nH]2)N=Nc2ccccc2)c1 (stereo not drawn) [MLS000374846],> 99
16,COc1ccc(CN=Nc2ccc([N+](=O)[O-])cc2S(=O)(=O)N2CCN(C)CC2)cc1 [MLS000553953],8.43
17,Cc1cccc(NNC2=c3cc(F)ccc3=NC2=O)c1 [MLS000673317],> 99
18,O=c1[nH]c(N=NCc2ccc(F)cc2)nc2ccccc12 [MLS000700887],> 99
19,CCC(N=Nc1cccc(C)c1)c1cnnc(SC)n1 (stereo not drawn) [MLS000705906],> 99
20,C=c1[nH]n(-c2ccccc2)c(=O)c1=Cc1cc(C)n(C2CC2)c1C [MLS001018445],> 99

row,SMILES,EC50 [µM]
1,CCSc1nnc(N2C(=O)C(=O)C(C(=O)c3ccco3)C2c2cccc(OC)c2)s1 (stereo not drawn) [MLS001140620],> 99
2,O=[N+]([O-])c1cc/c(=N\c2ccccc2O)c2no[nH]c1-2 [MLS001206694],> 99
3,Oc1ccc2ccccc2c1C=Nn1c(O)csc1=S [MLS002707175],> 99
4,"O=[N+]([O-])c1ccc(N=NCc2ccc3c(c2)OCO3)nc1 [N-(1,3-benzodioxol-5-ylmethylideneamino)-5-nitro-pyridin-2-amine]",> 99
5,O=[N+]([O-])c1ccc(N=NCc2cccc3ccccc23)nc1 [N-(naphthalen-1-ylmethylideneamino)-5-nitro-pyridin-2-amine],45.4
6,CCN(CC)c1ccc(CN=Nc2ccc([N+](=O)[O-])cn2)cc1 [N-[[4-(diethylamino)phenyl]methylideneamino]-5-nitro-pyridin-2-amine],70.2
7,Cc1ccc(C2=Nc3nnnn3C(c3ccc(N(C)C)cc3)C2)cc1 (stereo not drawn) [SMR000092467],> 99
8,COc1ccc(C=C2CCCC(C(=O)C(F)(F)F)C2=O)cc1 (stereo not drawn) [SMR000142699],33.8
9,Cc1[nH]c2ccccc2c1/C=C1\N=C(c2ccc(C(F)(F)F)cc2)OC1=O [SMR000152363],> 99
10,O=C(c1ccc2ccccc2n1)c1[nH][nH]c2c(O)n(-c3cccc(C(F)(F)F)c3)c(=O)c1-2 [SMR000212847],> 99
11,Cc1ccc(S(=O)(=O)N[N-][C+]2CCC(C(C)(C)C)CC2)cc1[N+](=O)[O-] [SMR000241764],> 99
12,COc1ccc(N=CCC(=O)c2ccc(C)cc2)cc1OC [SMR000269732],25
13,COc1cc(C2c3c(-c4cccs4)n[nH]c3OC(=N)C2C#N)cc(OC)c1O (stereo not drawn) [SMR000275523],13.3
14,CC1(C)CC(=O)C(N=Nc2cc3c(cc2[N+](=O)[O-])OCCO3)C(=O)C1 [SMR000348183],29.6
15,O=C1N=c2ccc(Br)cc2=C1NNc1ccc(F)cc1 [SMR000564049],45.8
16,CSc1nnc(N2C(=O)C(=O)C(C(=O)c3ccc(C)o3)C2c2ccc(C)cc2)s1 (stereo not drawn) [SMR000650392],> 99
17,"CCN1C(=O)C(C=NN=Cc2ccccc2)c2ccc(C3=NNC(=O)CC3)cc21 (stereo not drawn) [benzaldehyde {[1-ethyl-2-oxo-6-(6-oxo-1,4,5,6-tetrahydro-3-pyridazinyl)-1,2-dihydro-3H-indol-3-ylidene]methyl}hydrazone]",> 99
18,"CCOC(=O)c1c(NC=C2C(=O)NC(=O)NC2=O)sc2c1CCC2 [ethyl 2-{[(1E)-(2,4,6-trioxohexahydropyrimidin-5-yl)methylene]amino}-5,6-dihydro-4H-cyclopenta[b]thiophene-3-carboxylate]",> 99
